According to patent publication US4783482A, “Bis(thiocyanato)palladium(II)complexes” (Engelhard Corporation, priority 1985, dated 1988):

What was measured:
[1] = system: S180 ascites; assay: Anti-tumor evaluation: % increase in life span (% ILS) and survivors, S180 ascites in female CFW Swiss mice; assay type: in vivo; conditions: for Best % ILS: best over doses
Protocol: The above-prepared compounds were evaluated against S180 ascites in female CFW Swiss mice. The mice were weighed (average weight: 20 g), placed into cages (four or six mice to a cage), and on day zero the mice were inoculated with 0.2 ml of a freshly prepared saline suspension (0.15 M NaCl) containing 1×10^7 tumor cells/ml or a total of 2×10^6 cells This inoculum was freshly prepared using "transfer" mice, which had been injected with tumor cells the previous week; it was obtained via the following steps: (1) the removal of cells from the peritoneal cavity of the sacrificed transfer mouse, (2) alternate centrifugation and washing operations (2-3 times with cold saline) to remove blood and other components, and (3) dilution of the volume of the packed cell with saline (1:3). A final centrifugation was carried out at 1000 RPM over a two minute period. A cell count was made on a 2,000-fold dilution of this 1:3 suspension by means of a Coulter Counter. A final dilution to 1×10^7 cells/ml was made, based on the average count.
On day 1, solutions of the test compounds were prepared, and each mouse in a set of four or six were injected with the same test compound at the same dosage. The doses were based on the average weight of the animals (cage weight). Also, beginning on day 1, two controls were employed containing six mice per control:
(1) Normal Control: This consisted solely of the carrier or diluent used in combination with the test compound; and
(2) Positive Control: This consisted solely of known anti-tumor agent cis-[Pt(NH3)2 Cl2 ] in saline (8 mg/kg) to test the response of the biological system.
The effectiveness of a test compound was measured in terms of the % increase in life span (%ILS) of the test mice relative to the Normal Control (Calculated from the day of tumor inoculation, i.e., day zero). To standardize the test data and permit intercomparisons, the day of evaluation was arbitrarily taken as that day corresponding to twice the mean life span (or average day of death) of the control. This established a practical upper limit of 100% on the %ILS attainable. For calculation purposes, the survivors of the day of evaluation were considered to have died on that day. The %ILS was calculated as follows: [formula] ILS values in excess of 50% were interpreted as antitumor activity, whereas values in excess of 75% indicated excellent antitumor activity.
All test compounds were evaluated in water containing 0.1-0.3% of the suspending agent "Klucel" (hydroxypropylcellulose).
Tables 3 and 4, infra, show the criticality of the ring size and the thiocyanato substituents, respectively. The protocols for determining effectiveness for the products in Tables 3 and 4 were identical to the procedure employed for determining the anti-tumor effectiveness of the products in Table 2.

[2] = system: S180 Ascites; assay: ED90, LD50 and therapeutic index, S180 ascites; assay type: in vivo, mice; parameters: ED90: unit not given here; conditions: dose which causes a 50% increase in life span in 90% of the mice, determined graphically
Protocol: The effective dose (ED90), lethal does (LD50) and therapeutic index (TI) were determined, via the method of Miller and Taiter (Reported by R. A. Turner, "Screening Methods in Pharmacology", Academic Press, New York, pages 61-62 (1976)).
In this study, ED90 represents the dose which causes a 50% increase in life span (ILS) in 90% of the test animals (mice), determined graphically. The LD50 value represents the lethal dose in 50% of said animals.

[3] = dose 10 mg/kg, on day of evaluation
[4] = dose 20 mg/kg, on day of evaluation
[5] = dose 40 mg/kg, on day of evaluation
[6] = dose 80 mg/kg, on day of evaluation
[7] = dose 160 mg/kg, on day of evaluation
[8] = dose 5 mg/kg, on day of evaluation (twice mean life span of control)
[9] = dose 320 mg/kg, on day of evaluation

Row | SMILES | % ILS ([1]; dose 10 mg/kg) [%] | Survivors [1, 3] | % ILS ([1]; dose 20 mg/kg) [%] | Survivors [1, 4] | % ILS ([1]; dose 40 mg/kg) [%] | Survivors [1, 5] | % ILS ([1]; dose 80 mg/kg) [%] | Survivors [1, 6] | % ILS ([1]; dose 160 mg/kg) [%] | Survivors [1, 7] | Best % ILS [1] [%] | % ILS ([1]; dose 5 mg/kg) [%] | Survivors [1, 8] | % ILS ([1]; dose 320 mg/kg) [%] | Survivors [1, 9] | ED90 [2]
1 | NCCN.O=N[O-].O=N[O-].[Pd+2] [Comp. Ex. F, Dinitro(Ethylenediamine)palladium(II)] | 2 | 0 of 4 | 6 | 0 of 4 | -15 | 0 of 4 | -59 | 0 of 4 | -87 | 0 of 4 | – | – | – | – | – | –
2 | NCCCN.O=[N+]([O-])[Pd][N+](=O)[O-] [Comp. Ex. G, dinitro(1,3-diaminopropane)palladium(II)] | 13 | 0 of 4 | 16 | 0 of 4 | 27 | 0 of 4 | 0 | 1 of 4 | -89 | 0 of 4 | – | – | – | – | – | –
3 | CC1C[NH][Pd]([S]C#N)([S]C#N)[NH]1 (centres unmarked) [Ex. 2, Bis(Thiocyanato)-1,2-Diaminopropanepalladium(II)] | 13 | 0 of 6 | 17 | 0 of 6 | 59 | 2 of 6 | -21 | 1 of 6 | -74 | 0 of 6 | 59 | 16 | 0 of 6 | – | – | –
4 | N#C[S][Pd-2]1([S]C#N)[NH2+]c2cccc3cccc(c23)[NH2+]1 [Comp. Ex. D, bis(thiocyanato)-1,8-diaminonaphthalenepalladium(II)] | -11 | 0 of 6 | -9 | 0 of 6 | -11 | 0 of 6 | -19 | 0 of 6 | -28 | 0 of 6 | – | – | – | 48 | 1 of 6 | –
5 | N#C[S][Pd]1([S]C#N)[NH]c2ccccc2[NH]1 [Ex. 5, Bis(Thiocyanato)-o-Phenylenediaminepalladium(II)] | 14 | 0 of 4 | 15 | 0 of 4 | 27 | 0 of 4 | 81 | 2 of 4 | 79 | 1 of 4 | 81 | – | – | -73 | 0 of 4 | 130
6 | C[NH+]1CC[NH+](C)[Pd-2]1([S]C#N)[S]C#N (centres unmarked) [Ex. 4, Bis(Thiocyanato)-N,N'-Dimethylethylenediaminepalladium(II)] | 1 | 0 of 6 | -5 | 0 of 6 | 18 | 1 of 6 | 62 | 2 of 6 | -45 | 1 of 6 | 62 | -2 | 0 of 6 | – | – | –
7 | N#C[S][Pd-2]1([S]C#N)[NH2+]CCC[NH2+]1 [Comp. Ex. A, bis(thiocyanato)-1,3-diaminopropanepalladium(II)] | 1 | 0 of 4 | 9 | 0 of 4 | -4 | 0 of 4 | -70 | 0 of 4 | -88 | 0 of 4 | – | – | – | -93 | 0 of 4 | –
8 | N#C[S-].N#C[S-].NCCN.[Pd+2] [Ex. 1, Bis(Thiocyanato)ethylenediaminepalladium(II)] | 2 | 0 of 4 | 18 | 0 of 4 | 79 | 0 of 4 | 2 | 1 of 4 | -87 | 0 of 4 | 79 | – | – | -87 | 0 of 4 | –
9 | N#C[S][Pd][S]C#N.NCCCCN [Comp. Ex. B, bis(thiocyanato)-1,4-diaminobutanepalladium(II)] | -1 | 0 of 6 | 15 | 0 of 6 | -4 | 0 of 6 | -21 | 0 of 5 | 47 | 0 of 5 | – | – | – | 2 | 0 of 5 | –
10 | NCCN.[I-].[I-].[Pd+2] [Comp. Ex. L, Diiodo(ethylenediamine)palladium(II)] | -13 | 0 of 4 | -9 | 0 of 4 | -11 | 0 of 4 | 24 | 0 of 4 | 32 | 1 of 4 | – | -17 | 0 of 4 | – | – | –
11 | NC1CCCCC1N.O=[N+]([O-])[Pd][N+](=O)[O-] (centres unmarked) [Comp. Ex. H, Dinitro(1,2-diaminocyclohexane)palladium(II)] | 12 | 0 of 4 | 3 | 0 of 4 | -3 | 0 of 4 | 21 | 0 of 4 | – | – | – | – | – | – | – | –
12 | Nc1ccccc1N.O=N[O-].O=N[O-].[Pd+2] [Comp. Ex. I, dinitro(o-phenylenediamine)palladium(II)] | 21 | 0 of 4 | 3 | 0 of 4 | 29 | 1 of 4 | 19 | 0 of 4 | – | – | – | – | – | – | – | –
13 | [I][Pd]1([I])[NH]C2CCCCC2[NH]1 (centres unmarked) [Comp. Ex. M, Diiodo(1,2-Diaminocyclohexane)palladium(II)] | -9 | 0 of 4 | -20 | 0 of 4 | -15 | 0 of 4 | -16 | 0 of 4 | 77 | 1 of 4 | – | -4 | 0 of 4 | – | – | –
14 | N#C[S-].N#C[S-].NCC(=O)CN.[Pd+2] [Comp. Ex. E, Bis(Thiocyanato)diaminoacetonepalladium(II)] | 8 | 0 of 4 | 13 | 0 of 4 | 3 | 0 of 4 | 1 | 0 of 4 | 13 | 0 of 4 | – | 3 | 0 of 4 | – | – | –
15 | N#C[S][Pd]1([S]C#N)[NH]CC(O)C[NH]1 [Comp. Ex. C, bis(thiocyanato)-1,3-diamino-2-propanolpalladium(II)] | -4 | 0 of 6 | -7 | 0 of 6 | -8 | 0 of 6 | -76 | 0 of 6 | -87 | 0 of 6 | – | – | – | -92 | 0 of 6 | –
